Results published in patent publication US8822519B2, “Compound with agitation effect on peroxisome proliferator-activated receptor process for its preparation and use thereof” (Zhejiang Hisun Pharmaceutical Co., Ltd., priority 2008, dated 2014).
pEC50: −log10 of the molar value.

Legend:
Tissue distribution = assay type: in vivo, SD rats
Protocol: 18 of SD rats were fasting for 16 h with free access for water, assigned them into 3 groups with 6 animals/group with a female-to-male ratio of 1:1; they were dosed with HS060098 (10 mg/kg), then the animals were sacrificed at 1, 10, and 24 h after dosing, and the heart, liver, spleen, lung, kidney in each animal were removed rapidly. The tainted blood on the surface of the organ was washed off immediately with physiological saline. The tissue from the organ was dissected apart, washed thoroughly, blotted off, weighed, supplemented with physiological saline at 400 mg/ml, homogenized in an ice bath for 1 min, and centrifuged at 3750 rpm for 20 min. 400 μl of the supernatant was pipetted precisely, followed by addition of 40 μl of an inner standard (HS060001 used as the inner standard with a molar concentration of 5 mmol/L), diluted with 3 ml of purified water, vortexed to homogeneity, and loaded onto a column (SPE C18 column was firstly washed with 3 ml of purified water, and sequentially with 3 ml of 10% methanol for activation). The column was rinsed with 3 ml of purified water at 1 ml/min, and then eluted with 3 ml of a elutant (methanol: purified water=9:1). The eluate was collected and blow-dried under a nitrogen flow at 45° C. The residue was dissolved in 400 μl of acetonitrile and then a HPLC insert was placed and followed by injection of the sample.

[1] = Pharmacokinetics: plasma concentration-time curve; assay type: in vivo; conditions: both sexes, rat, plasma, oral, SD rats, gastric lavage, 50, 10 and 2 mg/kg
Protocol: The dosing volume was 10 ml/kg, and blood samples of 0.4-0.5 ml were taken from the vena orbitalis posterior of the waken animals at different time points post-gastric lavage and centrifuged at 5000 rpm for 10 min. 200 μL of plasma sample was precisely measured, then supplemented with 200 μL acetonitrile, vortexed to evenness, left stand for 5 min, and centrifuged (14000 rpm, 5 min). The supernatant was collected and then centrifuged again (14000 rpm, 5 min). The resulting supernatant was gathered and subjected to HPLC injection. Time points for blood sampling were respectively: 0, 0.5, 1, 2, 4, 6, 8, 10, 12, 24, 36, 48 and 72 h, and the peak area for each time point was the average of those obtained from 6 rats at the same time point. Plasma concentrations were calculated and the medicament concentration-time curve was plotted.

PPARδ = target: T1, PPARδ (Homo sapiens, UniProt Q03181); assay: In vitro screening of nuclear receptor agonist: luciferase reporter gene assay in HepG2 cells; assay type: cell-based; conditions: RXR/PPARδ luciferase reporter gene, 24 h treatment
T1 construct: expressed in transfected cells; host or cells: HepG2 (human hepatocarcinoma, ATCC)
T1 sequence (Q03181 1-441): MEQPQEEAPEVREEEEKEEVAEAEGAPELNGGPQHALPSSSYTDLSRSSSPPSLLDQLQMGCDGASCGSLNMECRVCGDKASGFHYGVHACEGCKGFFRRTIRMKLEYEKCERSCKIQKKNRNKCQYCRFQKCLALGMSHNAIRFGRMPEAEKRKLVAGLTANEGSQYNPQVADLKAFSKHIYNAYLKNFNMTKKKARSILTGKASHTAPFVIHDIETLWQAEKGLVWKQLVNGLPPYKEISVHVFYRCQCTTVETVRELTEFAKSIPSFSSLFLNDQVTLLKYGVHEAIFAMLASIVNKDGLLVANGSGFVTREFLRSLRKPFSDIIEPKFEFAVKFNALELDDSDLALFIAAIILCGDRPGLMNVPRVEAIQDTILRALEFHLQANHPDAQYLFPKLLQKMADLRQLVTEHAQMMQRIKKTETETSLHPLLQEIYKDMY
T1 sequence (P19793 1-462 partner): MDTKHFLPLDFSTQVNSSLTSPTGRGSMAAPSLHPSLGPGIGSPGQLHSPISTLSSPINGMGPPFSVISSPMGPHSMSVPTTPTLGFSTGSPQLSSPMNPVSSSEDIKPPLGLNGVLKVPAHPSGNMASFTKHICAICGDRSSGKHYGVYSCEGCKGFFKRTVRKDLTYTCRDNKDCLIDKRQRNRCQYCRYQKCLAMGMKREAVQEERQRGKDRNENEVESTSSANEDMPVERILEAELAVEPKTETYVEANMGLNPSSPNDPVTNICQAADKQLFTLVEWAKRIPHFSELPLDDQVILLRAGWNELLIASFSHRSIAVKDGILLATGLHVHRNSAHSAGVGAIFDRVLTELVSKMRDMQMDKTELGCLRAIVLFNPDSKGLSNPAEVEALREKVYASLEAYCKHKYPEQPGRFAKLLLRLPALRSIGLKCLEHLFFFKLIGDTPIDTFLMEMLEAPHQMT
From the text: Using a reporter gene protocol, the screening model for screening a nuclear receptor agonist in a living cell is designed on a basis of the principal that an activated nuclear receptor can activate transcription of its downstream gene. A reporter gene plasmid is constructed, in which the DNA binding sequence for the nuclear receptor (NRE) is inserted upstream of the luciferase gene, so that the expression of the luciferase gene is placed under the control of the nuclear receptor. Then, the reporter gene plasmid and the nuclear receptor are simultaneously transferred into a cell, and the nuclear receptor is activated when the nuclear receptor agonist is present in the cell culture medium. Then the activated receptor is able to induce the expression of the luciferase gene, while the amount of the luciferase can be determined through its luminous substrate. In this way, the intensity of activation by the compound on the nuclear receptor could be known by observing the luminescence intensity.
The specific operation is described as follows:
The experiment reagents: the compounds to be tested (20 mM, in DMSO, stored at −80° C.).
The hepatocarcinoma cell HepG2 (from ATCC, American Type Culture Collection) was cultured in DMEM medium supplemented with 10% heat-inactivated fetal bovine serum (FBS, Invitogen, Grand Island, N.Y., USA) in a T-75 culture bottle (Greiner, Germany) in a incubator at 37° C., the relative humidity of 100%, and 5% CO2. When the cell culture in the culture bottle reached 80-90% confluency, it was digested with 0.25% Trypsin (with EDTA) for 3 min and inoculated into a 96-well cell culture plate at an inoculating density of 2000 cells/100 μl/well.
In the next day, when the cells in the 96-well culture plate grew up to 50-80% confluency, cell transfection was performed. The cell co-transfection system comprised the FuGene6 transfection agent (Roche Molecular Biochemicals, Indianapolis, Ind., U.S.A.) and 60 ng DNA (long of hRXR, 10 ng of pCMV βGal, 10 ng of the nuclear receptor expression plasmid RXR/PPARδ, 30 ng of GFP fluorescence reporter gene plasmid, respectively).
The cell culture medium was discarded immediately at 24 hours post-transfection and replaced by 200 μl of a fresh DMEM medium containing the medicament to be tested (with 10% FBS treated by activated carbon).
24 h after treatment with the medicament, the cells were lysed with a lysis solution (Cell Culture Lysis buffer, Promega) and centrifuged, and the supernatant was collected. The supernatant was treated with a fluorescence detection kit (Promega) and counted by a fluorescence meter (Ascent Fluoroskan FL reader, Thermo Labsystems, Finland), and the relative intensity of the luciferase was determined. For assaying the β-galactosidase activity used in the experiment as the inner reference (the inner reference calibrating for the transfection efficiency), 50 μl of the supernatant was transferred into a fresh microplate and treated with the Promega kit and read at a wavelength of 405 nm from a microplate reader (Bio-tech Instruments Inc., Winooski, Vt., USA) (Sauerberg, P.; Olsen, G. S.; Jeppesen, L.; Mogensen, J. P. et al., J. Med. Chem., 2007, 50, 1495-1503).
The median effective concentration (EC50) of a sample is a concentration at which the sample has 50% pharmacological effect. This value is one of the important parameters for evaluating pharmacological effects of a compound. In the present screening process, the EC50 of a sample was calculated according to the activation of the receptor by the sample at six different concentrations.

[2] = clinical research, Oliver et al. 2001; cited from earlier work
[3] = distribution in organs, SD rats, 10 mg/kg

Cc1cc(OC(c2ccccc2)c2nn(-c3ccc(C(F)(F)F)cc3)c(=O)n2C)ccc1OCC(=O)O (centres unmarked) [Compound A-1, 2-(2-methyl-4-(1-(3-(4-methyl-5-oxo-1-(4-trifluoromethyl-phenyl)-4,5-dihydrogen-1H-1,2,4-triazolyl))-benzyloxy)-phenoxy)-acetic acid]
Heart (Tissue distribution; [3]): 6%
Kidney (Tissue distribution; [3]): 9%
Liver (Tissue distribution; [3]): 65%
Lung (Tissue distribution; [3]): 11%
Spleen (Tissue distribution; [3]): 9%
tissue distribution (Tissue distribution; in words): distribute mainly in liver
half-life [1]: 26 to 28 h
bioavailability ([1]; read-out: bioavailability): 15%
pEC50 (PPARδ): 6.33

Cc1cc(SC(c2ccccc2)c2nn(-c3ccc(C(F)(F)F)cc3)c(=O)n2C)ccc1OC(C)(C)C(=O)O (centres unmarked) [Compound A-16, 2,2-dimethyl-2-(2-methyl-4-(1-(3-(4-methyl-5-oxo-1-(4-trifluoromethyl-phenyl)-4,5-dihydrogen-1H-1,2,4-triazolyl))-benzylthio)-phenoxy)-acetic acid]
pEC50 (PPARδ): 9.00

CCCCn1c(C(Oc2ccc(SCC(=O)O)cc2C)c2ccccc2)nn(-c2ccc(C(F)(F)F)cc2)c1=O (centres unmarked) [Compound A-17, 2-(3-methyl-4-(1-(3-(4-n-butyl-5-oxo-1-(4-trifluoromethyl-phenyl)-4,5-dihydrogen-1H-1,2,4-triazolyl))-benzyloxy)-phenylthio)-acetic acid]
pEC50 (PPARδ): > 9.00

CCCCn1c(C(Sc2ccc(OC(C)(C)C(=O)O)c(C)c2)c2ccccc2)nn(-c2ccc(C(F)(F)F)cc2)c1=O (centres unmarked) [Compound A-18]
pEC50 (PPARδ): > 9.00

CCCCn1c(C(Sc2cc(C)c(OCC(=O)O)cc2C)c2ccccc2)nn(-c2ccc(C(F)(F)F)cc2)c1=O (centres unmarked) [Compound A-19, 2-(2,5-dimethyl-4-(1-(3-(4-n-butyl-5-oxo-1-(4-trifluoromethyl-phenyl)-4,5-dihydrogen-1H-1,2,4-triazolyl))-benzylthio)-phenoxy)-acetic acid]
pEC50 (PPARδ): > 9.00

Cc1cc(SCc2sc(-c3ccc(C(F)(F)F)cc3)nc2C)ccc1OCC(=O)O [GW501516]
decrease the level of insulin [2]: up to 48%
decrease the level of triglyceride (TG) [2]: up to 56%
increase the level of high density lipoprotein (HDL) cholesterol [2]: up to 80%
lower the level of low density lipoprotein (LDL) cholesterol [2]: up to 29%
